From patent publication US10988523B2, “Modified lipidated Relaxin B chain peptides and their therapeutic use” (Sanofi, priority 2018, dated 2021)
≈ marks a conversion by molar mass, not a printed value. Where two headings read alike, the source gives them in different places. *1 amine or outer side, *2 acyl side, *3 side chain or, on linkers, in order; H or OH if unused. Where a SMILES comes first, the peptide text is derived from it. Side-chain parts run from the residue outwards. [ ]: non-standard residue; d: D form. The star is where a group is joined. X2 = CCCCCCCCCCCCCCCCCC(=O)N[C@@H](CCC(=O)N[C@@H](CCC(=O)N[C@@H](CCC(=O)NCCCC[C@H](NC(=O)COCC(=O)NCCCOCCOCCOCCCNC(=O)COCC(=O)NCCCOCCOCCOCCCNC(=O)COCC(=O)NCCCOCCOCCOCCCN*)C(N)=O)C(=O)O)C(=O)O)C(=O)O; PEG12 = NCCOCCOCCOCCOCCOCCOCCOCCOCCOCCOCCOCCOCCC(=O)O; γGlu = O=C(O)[C@H](CCC(=O)[*:2])N[*:1]; Stearoyl = CCCCCCCCCCCCCCCCCC(=O)*; Palmitoyl = CCCCCCCCCCCCCCCC(=O)*; Nle = CCCC[C@H](N)C(=O)O; AEEA = NCCOCCOCC(=O)O; Aib = CC(C)(N)C(=O)O

Experiments:
RXFP1 = biological target: T1, RXFP1 (Homo sapiens, UniProt Q9HBX9); assay: OVCAR5 cAMP assay (HTRF), RXFP1 agonist activity; type: cell-based; details: for Emax: OVCAR-5, maximal cAMP relative to H2-relaxin maximum (100%), read-out: EMax, OVCAR 5 cells (cAMP)
T1 construct: OVCAR5 cells expressing endogenous RXFP1; endogenous in cells; host or cells: OVCAR5 cells
T1 sequence (Q9HBX9 1-757): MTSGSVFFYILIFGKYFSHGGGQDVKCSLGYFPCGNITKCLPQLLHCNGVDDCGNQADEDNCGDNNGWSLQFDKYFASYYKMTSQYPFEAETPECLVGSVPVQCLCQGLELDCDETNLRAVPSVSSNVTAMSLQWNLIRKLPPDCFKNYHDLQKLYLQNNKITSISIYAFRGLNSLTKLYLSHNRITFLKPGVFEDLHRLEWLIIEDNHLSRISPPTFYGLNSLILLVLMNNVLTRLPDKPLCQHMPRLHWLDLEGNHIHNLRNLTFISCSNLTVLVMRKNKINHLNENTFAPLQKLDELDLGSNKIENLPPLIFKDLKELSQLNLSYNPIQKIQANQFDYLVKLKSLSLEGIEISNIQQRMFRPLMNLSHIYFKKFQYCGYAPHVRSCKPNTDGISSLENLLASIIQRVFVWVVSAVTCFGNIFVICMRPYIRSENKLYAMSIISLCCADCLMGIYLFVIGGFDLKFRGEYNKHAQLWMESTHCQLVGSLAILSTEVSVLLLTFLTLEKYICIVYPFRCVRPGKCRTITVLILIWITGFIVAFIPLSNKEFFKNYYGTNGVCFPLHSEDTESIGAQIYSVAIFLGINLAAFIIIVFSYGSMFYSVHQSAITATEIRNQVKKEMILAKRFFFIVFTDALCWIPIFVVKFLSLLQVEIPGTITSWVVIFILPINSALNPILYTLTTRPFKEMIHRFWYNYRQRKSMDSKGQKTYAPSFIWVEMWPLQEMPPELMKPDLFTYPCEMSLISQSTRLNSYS
Method in brief: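 OVCAR5 cells (endogenous RXFP1) pretreated 40 min at 37° C with 1 mM IBMX, then exposed to peptides in serum-free medium for 30 min at 37° C. Lysate cAMP read by HTRF; EC50 from variable-slope sigmoidal fit; Emax as % of H2-relaxin maximal cAMP in same run.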

[1] = Solubility testing of peptides in buffer; type: physicochemical
Protocol: Prior to the testing of solubility of a peptide batch, its purity (HPLC-UV) was determined.
Acetate Buffer 50 mM pH4.5: 0.75 g […], 3H2O (Sigma 57545)+0.35 ml CH3CO2H 100% solution dissolved in Millipore water, adjusted to pH with diluted (1:1) CH3CO2H and diluted to 250 ml with Millipore water.
In a 4 ml Ependorph vial, an accurately weighed sample of compound was diluted in study media to obtain target concentration of 2, 6 or 10 mg/ml of pure compound. The sample vials were shacked (rock 'roll shaker) for ˜19 h. 3004, Aliquots ( ) were filtered through a Millipore “Solvinert” plate (0.45 μm—PTFE hydrophilic).
pH was measured with a micro electrode
Waters Acquity UPLC System with DAD detector
Column: Waters Peptide Column CSH C18 (130 Å; 1.7 μm; 50*2.1 mm)
Column temperature: 60° C.
Full loop (about 5 μL)—overfill factor 5
Weak et Strong wash: H2O/ACN (75/25; V/V); Seal wash: H2O/IsOH (95/5; V/V). Mobile phase:
Solvent A: 0.05% TFA in H2O; Solvent B: 0.035% TFA in CH3CN
Gradient: from 0 to 12 min B=2% to 60%, from 12 to 14 min B=60% to 100%. Column washing 100% B 1 min, column equilibration 2% B 2.5 min.
UV detector: wavelength: 220 nm.

[2] = Pharmacokinetic (PK) determination after i.v. or s.c. administration to rats; type: in vivo, Sprague Dawley rats; details: Sprague Dawley, Rat PK; for C0 / half-life: iv, 1 mg/kg i.v.; for C0: extrapolated plasma concentration at t=0, read-out: C0; for half-life / Cmax / Tmax / bioavailability: plasma; for half-life: read-out: T½ (converted); for Cmax / Tmax: sc, 3 mg/kg s.c.; for bioavailability: subcutaneous, 3 mg/kg s.c. vs 1 mg/kg i.v., dose-corrected AUC ratio
Method in brief: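 Sprague Dawley rats received peptide in PBS at 1 mg/kg i.v. or 3 mg/kg s.c., dose corrected for salts, solvent and purity. Plasma analysed by LC/MS after protein precipitation; non-compartmental PK, BLQ values set to zero, F% as dose-corrected s.c./i.v. AUC ratio.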

[3] = acetate buffer, pH 4.5, read-out: Solubility Acetate buffer pH 4.5
[4] = phosphate buffer, pH 7.4, read-out: Solubility phosphate buffer pH 7.4

Row | EC50 (RXFP1; OVCAR5 cells, cAMP HTRF, read-out: EC50 (nM), OVCAR 5 cells (cAMP)) [nM] | Emax (RXFP1) [%] | solubility ([1]; phosphate buffer 50 mM pH 7.4, target solubility 2.0 mg/ml, read-out: Solubility phosphate buffer pH 7.4) [µg/mL] | C0 [2] [nM] | half-life [2] [h] | Cmax [2] [nM] | Tmax [2] [h] | bioavailability [2] [%] | solubility [1, 3] [µg/mL] | solubility [1, 4] [µg/mL] | Compound
1 | 0.04 | 88 | > 2100 | 4000 | 3.4 | 1500 | 6 | 93 |  |  | CCCCCCCCCCCCCCCCCC(=O)N[C@@H](CCC(=O)N[C@@H](CCC(=O)N[C@@H](CCC(=O)NCCCC[C@H](NC(=O)COCCOCCNC(=O)COCCOCCNC(=O)COCCOCCNC(=O)[C@H](CCCCNC(C)=O)NC(=O)[C@H](CCCCN)NC(=O)[C@H](CCCNC(=N)N)NC(=O)C(C)(C)NC(=O)[C@H](CO)NC(=O)[C@H](Cc1c[nH]c2ccccc12)NC(=O)[C@@H](NC(=O)[C@H](CO)NC(=O)[C@H](CCCC)NC(=O)CNC(=O)[C@H](CCC(=O)O)NC(=O)C(C)(C)NC(=O)C(C)(C)NC(=O)[C@@H](NC(=O)[C@H](CCCCNC(C)=O)NC(=O)[C@H](C)NC(=O)[C@H](CCCNC(=N)N)NC(=O)[C@@H](NC(=O)[C@H](CCCCN)NC(=O)[C@H](CCC(=O)O)NC(=O)[C@H](CCCNC(=N)N)NC(=O)CNC(=O)[C@H](CCC(=O)O)NC(=O)[C@H](CC(C)C)NC(C)=O)C(C)C)[C@@H](C)CC)[C@@H](C)O)C(N)=O)C(=O)O)C(=O)O)C(=O)O [compound 14] (Ac-LEGREKVRAK(Ac)I[Aib][Aib]EG[Nle]STWS[Aib]RKK(Ac)[AEEA][AEEA][AEEA]K([γGlu-γGlu-γGlu-Stearoyl])-NH2)
2 |  | 88 |  | 4000 | 3.96 | 3000 | 8 | 73 | 5600 (≈ 1220 µM) | 5600 (≈ 1220 µM) | CCCCCCCCCCCCCCCCCC(=O)N[C@@H](CCC(=O)N[C@@H](CCC(=O)N[C@@H](CCC(=O)NCCCC[C@H](NC(=O)COCC(=O)NCCCOCCOCCOCCCNC(=O)COCC(=O)NCCCOCCOCCOCCCNC(=O)COCC(=O)NCCCOCCOCCOCCCNC(=O)[C@H](CCCCNC(C)=O)NC(=O)[C@H](CCCCN)NC(=O)[C@H](CCCNC(=N)N)NC(=O)C(C)(C)NC(=O)[C@H](CO)NC(=O)[C@H](Cc1c[nH]c2ccccc12)NC(=O)[C@@H](NC(=O)[C@H](CO)NC(=O)[C@H](CCCC)NC(=O)CNC(=O)[C@H](CCC(=O)O)NC(=O)C(C)(C)NC(=O)C(C)(C)NC(=O)[C@@H](NC(=O)[C@H](CCCCNC(C)=O)NC(=O)[C@H](C)NC(=O)[C@H](CCCNC(=N)N)NC(=O)[C@@H](NC(=O)[C@H](CCCCN)NC(=O)[C@H](CCC(=O)O)NC(=O)[C@H](CCCNC(=N)N)NC(=O)CNC(=O)[C@H](CCC(=O)O)NC(=O)[C@H](CC(C)C)NC(C)=O)C(C)C)[C@@H](C)CC)[C@@H](C)O)C(N)=O)C(=O)O)C(=O)O)C(=O)O [compound 20] (Ac-LEGREKVRAK(Ac)I[Aib][Aib]EG[Nle]STWS[Aib]RKK(Ac)-X2)
3 |  | 89 |  | 2900 | 8.96 | 1700 | 6 | 84 | 7000 (≈ 1740 µM) | 7000 (≈ 1740 µM) | CCCCCCCCCCCCCCCC(=O)N[C@@H](CCC(=O)N[C@@H](CCC(=O)N[C@@H](CCC(=O)NCCCC[C@H](NC(=O)CCOCCOCCOCCOCCOCCOCCOCCOCCOCCOCCOCCOCCNC(=O)[C@H](CCCCN)NC(=O)[C@H](CCCNC(=N)N)NC(=O)C(C)(C)NC(=O)[C@H](CO)NC(=O)[C@H](Cc1c[nH]c2ccccc12)NC(=O)[C@@H](NC(=O)[C@H](CO)NC(=O)[C@H](CCSC)NC(=O)CNC(=O)[C@H](CCC(=O)O)NC(=O)C(C)(C)NC(=O)C(C)(C)NC(=O)[C@@H](NC(=O)[C@H](CCC(N)=O)NC(=O)[C@H](C)NC(=O)[C@H](CCCNC(=N)N)NC(=O)[C@@H](NC(=O)[C@H](CCCCN)NC(=O)[C@H](CCC(=O)O)NC(=O)[C@H](CCCNC(=N)N)NC(=O)CNC(=O)[C@H](CCC(=O)O)NC(=O)[C@H](CC(C)C)NC(C)=O)C(C)C)[C@@H](C)CC)[C@@H](C)O)C(N)=O)C(=O)O)C(=O)O)C(=O)O [compound 23] (Ac-LEGREKVRAQI[Aib][Aib]EGMSTWS[Aib]RK[PEG12]K([γGlu-γGlu-γGlu-Palmitoyl])-NH2)
